What was measured:
Mus musculus [1] = assay: Compound was evaluated for (T-C) survival time of the treated mice (Mus musculus) against Plasmodium berghei at 40 mg/Kg; format: functional
Plasmodium falciparum [2] = assay: In vitro antimalarial activity against Plasmodium falciparum W-2; format: functional, organism-based
Plasmodium falciparum [3] = assay: In vitro antimalarial activity against Plasmodium falciparum D6; format: functional, organism-based
Mus musculus [4] = assay: Compound was evaluated for (T-C) survival time of the treated mice (Mus musculus) against Plasmodium berghei at 640 mg/kg; format: functional
Mus musculus [5] = assay: Compound was evaluated for (T-C) survival time of the treated mice (Mus musculus) against Plasmodium berghei at 160 mg/kg; format: functional

Compound `CN(COOC(C)(C)C)C1CCCCC1` has a T-C (Mus musculus [1]) of 0.5 days, an IC50 (Plasmodium falciparum [2]) of 26.6 µM and an IC50 (Plasmodium falciparum [3]) of 25.1 µM. For the same compound, the T-C (Mus musculus [4]) was 0.7 days and the T-C (Mus musculus [5]) was 1.3 days.
Work on `CC1CCN(COOC(C)(C)C)CC1` yielded a T-C (Mus musculus [1]) of 0.3 days, an IC50 (Plasmodium falciparum [2]) of 25.2 µM and an IC50 (Plasmodium falciparum [3]) of 19.7 µM. It also gave a T-C (Mus musculus [4]) of 0.7 days and a T-C (Mus musculus [5]) of 0.1 days.
`CCN(COOC(C)(C)C)c1ccccc1` gave a T-C (Mus musculus [1]) of 0.5 days, an IC50 (Plasmodium falciparum [2]) of 39.4 µM and an IC50 (Plasmodium falciparum [3]) of 54 µM. The T-C (Mus musculus [4]) was 1.3 days and the T-C (Mus musculus [5]) was 0.3 days.
Compound `CC(C)(C)OOCN1CCN(c2ccccc2)CC1` has a T-C (Mus musculus [1]) of 0.9 days, an IC50 (Plasmodium falciparum [2]) of 39.8 µM and an IC50 (Plasmodium falciparum [3]) of 25.7 µM. For the same compound, the T-C (Mus musculus [4]) was 0.7 days and the T-C (Mus musculus [5]) was 0.7 days.
With `CC(C)(C)OO` [TERT-BUTYL HYDROPEROXIDE] the T-C (Mus musculus [1]) was 0.1 days, the IC50 (Plasmodium falciparum [2]) was 240 µM and the IC50 (Plasmodium falciparum [3]) was 203 µM. The T-C (Mus musculus [4]) was 0.7 days and the T-C (Mus musculus [5]) was 0.3 days.
`CC(C)(C)OOCN1CCC(c2ccccc2)CC1` showed a T-C (Mus musculus [1]) of 0.3 days, an IC50 (Plasmodium falciparum [2]) of 26.9 µM and an IC50 (Plasmodium falciparum [3]) of 27.3 µM. For the same compound, the T-C (Mus musculus [4]) was 0.8 days and the T-C (Mus musculus [5]) was 0.5 days.
